Measurements taken from patent US20090081154A1, “Attractant composition for yellowjackets” (priority 2006, published 2009).
Values joined by “and” are separate entries in the source; they are usually repeats but may differ in a detail not shown here. Equal values may be shown once.

What was measured:
[1] = tested on: yellowjackets; assay: Third field trap trial, LHS upper patio, 12 traps; assay type: in vivo, Vespula pensylvanica; details: 8/11-9/7/05, LHS UP; for total YJ: 4 repetitions of each treatment
Experimental: A third trial was performed in the same location using a total of 12 traps. There were 4 repetitions of each treatment presented.

[2] = tested on: yellowjackets; assay: Second field trap experiment, LHS upper patio, 4 sets of three treatments; assay type: in vivo, Vespula pensylvanica; details: 7/21-8/10/05, twenty days, LHS UP, 4 traps per treatment (one octyl butyrate trap lost)
Description: A second experiment was set up at the Lawrence Hall of Science upper patio, placing 4 sets of the three treatments randomly around the patio, a total of 12 traps. One trap containing octyl butyrate was lost and not counted.

[3] = tested on: yellowjackets; assay: Three ester trap trials taken together (totals and conclusions); assay type: in vivo, Vespula pensylvanica; details: for relative attractiveness of the esters, in words: heptyl butyrate, octyl butyrate and their combination compared; for Total numbers of yellowjackets caught for all trials: sum of Tables 1-3
Experimental: Several experiments were performed to determine the relative attractiveness of heptyl butyrate, octyl butyrate and a 1:1 mixture of the two esters. In an initial experiment, one trap each containing octyl butyrate, heptyl butyrate, or a 1:1 mixture of the two esters, was placed around the perimeter of the north lawn of the Lawrence Hall of Science, University of California, Berkeley. After approximately 1 month, the yellowjackets in each trap were collected and counted. […] The results are shown below in Table 1: A second experiment was set up at the Lawrence Hall of Science upper patio, placing 4 sets of the three treatments randomly around the patio, a total of 12 traps. One trap containing octyl butyrate was lost and not counted. After twenty days, the total numbers of yellowjackets caught for each of the treatments is shown in table 2 below: A third trial was performed in the same location using a total of 12 traps. There were 4 repetitions of each treatment presented. The total number of yellowjackets caught per each treatment is shown in table 3: Total numbers of yellowjackets caught for all trials are given below: The trial from Jul. 21-Aug. 10, 2005 cannot be assumed to be an anomaly.

[4] = tested on: Vespula pensylvanica; assay: Initial field trap experiment: octyl butyrate, heptyl butyrate or 1:1 mixture, LHS north lawn; assay type: in vivo; details: one trap per composition, 6/15-7/21 (approximately 1 month), LHS NL
Experimental: Several experiments were performed to determine the relative attractiveness of heptyl butyrate, octyl butyrate and a 1:1 mixture of the two esters. In an initial experiment, one trap each containing octyl butyrate, heptyl butyrate, or a 1:1 mixture of the two esters, was placed around the perimeter of the north lawn of the Lawrence Hall of Science, University of California, Berkeley. After approximately 1 month, the yellowjackets in each trap were collected and counted. […]

[5] = tested on: yellowjackets; assay: Field trap test octyl butyrate vs. OB + 1% MSA + 1% t-2-H, LHS North Lawn; assay type: in vivo, Vespula pensylvanica; details: three traps per treatment, 8 ml attractant, 1% each MSA and t-2-H; listed as OB
Experimental: In a separate experiment, a mixture of octyl butyrate and the two kairomones methyl salicylate (MSA) and trans-2-hexenol (t-2-H), where the two kairomones were each present in 1% by weight quantities, was tested against octyl butyrate alone. Three repetitions of each treatment were tested in yellowjacket traps placed around the Lawrence Hall of Science North Lawn on Jul. 21, 2005. Each lure contained 8 ml of attractant. The traps were collected and the yellowjackets removed and counted on Aug. 11, 2005. […] A total of 40 yellowjackets were caught using the combination OB+MSA+t-2-H, whereas only 31 yellowjackets were caught in traps baited with OB alone.

[6] = tested on: yellowjackets; assay: Field trap test octyl butyrate vs. OB + 1% trans-2-hexenol, Strawberry Baseball Diamonds; assay type: in vivo, Vespula pensylvanica; details: 8 ml attractant, 27 days; for # of YJ (single trap): per trap, t-2-H 1% by weight
Experimental: In another experiment conducted at the Strawberry Baseball Diamonds, octyl butyrate was compared to octyl butyrate+t-2-hexenol, where the trans-2-hexenol was present in 1% concentration by weight. […] For each treatment, 8 ml of attractant was used. The traps were collected and counted after 27 days. The total number of yellowjackets caught in the three traps with octyl butyrate alone is 113. A total of 170 yellowjackets were caught in the three traps baited with octyl butyrate +t-2-hexenol.

[7] = tested on: yellowjackets; assay: Field trap test octyl butyrate vs. OB + 1% methyl salicylate, LHS Back Plaza; assay type: in vivo, Vespula pensylvanica; details: 1% MSA
Experimental: In one experiment, octyl butyrate (OB) was compared with OB containing 1% methyl salicylate (MSA). Six traps were placed at the Lawrence Hall of Science Back Plaza on Jul. 21, 2005. Three of the traps were baited with octyl butyrate alone. The other three were baited with the mixture of 1% methyl salicylate in octyl butyrate. Each of the traps contained 8ml of attractant dispensed on a cotton pad, which was placed inside the trap. The traps were collected on Sep. 8, 2005, and the yellowjackets counted.

CCCCCCCOC(=O)CCC [heptyl butyrate]
Avg catch per trap [1]: 61 | total YJ [1]: 242 | Total # YJ [2]: 235 | relative attractiveness of the esters, in words [3]: more effective in luring and capturing yellowjackets than octyl butyrate | Total numbers of yellowjackets caught for all trials [3]: 625 | # YJ caught [4]: 148

CCCCCCCCOC(=O)CCC [octyl butyrate]
Avg catch per trap [1]: 45 | total YJ [1]: 134 | Total # YJ [2]: 145 | relative attractiveness of the esters, in words [3]: inferior attractant to heptyl butyrate | Total numbers of yellowjackets caught for all trials [3]: 315 | Totals (YJ per treatment) [5]: 31 and 30 | # of YJ (single trap) ([6]; listed as OB): 38 and 41 | # of YJ (single trap) ([6]; listed as Octyl (OB)): 34 | Total YJ per Treatment ([6]; three traps per treatment, t-2-H 1%): 113 | # YJ caught [4]: 36 | # of YJ (single trap) ([7]; per trap, 8 ml attractant on cotton pad, LHS Back Plaza, collected Sep. 8, 2005): 0 | Totals (YJ per treatment) ([7]; three traps per treatment, 8 ml attractant): no yellowjackets were caught
